Tested on: Mycobacterium tuberculosis
Assay: Antimycobacterial activity against Mycobacterium bovis BCG assessed as inhibition of microbial growth after 120 hrs by MTT assay
Type: functional, organism-based
Conditions: variant bovis BCG

SMILES | IC50 [µM]
OC[C@H]1O[C@@H](n2ccc3c(-c4cc5ccccc5o4)ncnc32)[C@H](O)[C@@H]1O | > 100
OC[C@H]1O[C@@H](n2cc(Cl)c3c(-c4ccco4)ncnc32)[C@H](O)[C@@H]1O | 89.2
OC[C@H]1O[C@@H](n2cc(F)c3c(-c4cc[nH]c4)ncnc32)[C@H](O)[C@@H]1O | > 100
OC[C@H]1O[C@@H](n2cc(F)c3c(-c4ccsc4)ncnc32)[C@H](O)[C@@H]1O | > 100
OC[C@H]1O[C@@H](n2cc(F)c3c(-c4c[nH]cn4)ncnc32)[C@H](O)[C@@H]1O | 11.7
OC[C@H]1O[C@@H](n2ccc3c(-c4ccc(F)cc4)ncnc32)[C@H](O)[C@@H]1O | 93.8
COc1ccc(-c2ncnc3c2ccn3[C@@H]2O[C@H](CO)[C@@H](O)[C@H]2O)cc1 | 56.9
OC[C@H]1O[C@@H](n2cc(F)c3c(-c4ccc[nH]4)ncnc32)[C@H](O)[C@@H]1O | 45.8
OC[C@H]1O[C@@H](n2ccc3c(-c4ccccn4)ncnc32)[C@H](O)[C@@H]1O | 38.2
CCCCCCCCCCCCCCCCCCOP(=O)(O)OC[C@H]1O[C@@H](n2ccc3c(-c4ccco4)ncnc32)[C@H](O)[C@@H]1O | > 100
OC[C@H]1O[C@@H](n2ccc3c(-c4ccc[nH]4)ncnc32)[C@H](O)[C@@H]1O | 56.4
OC[C@H]1O[C@@H](n2ccc3c(-c4cccs4)ncnc32)[C@H](O)[C@@H]1O | > 100
OC[C@H]1O[C@@H](n2ccc3c(-c4ccco4)ncnc32)[C@H](O)[C@@H]1O | > 100
OC[C@H]1O[C@@H](n2cc(Cl)c3c(-c4cccs4)ncnc32)[C@H](O)[C@@H]1O | 96.4
CCCCCCCCCCCCCCCCCCOP(=O)(O)OC[C@H]1O[C@@H](n2ccc3c(-c4ccoc4)ncnc32)[C@H](O)[C@@H]1O | 56.6
CCCCCCCCCCCCCCCCCCOP(=O)(O)OC[C@H]1O[C@@H](n2ccc3c(-c4ccsc4)ncnc32)[C@H](O)[C@@H]1O | 82.8
OC[C@H]1O[C@@H](n2cc(Cl)c3c(-c4ccoc4)ncnc32)[C@H](O)[C@@H]1O | 97.1
CCCCCCCCCCCCCCCCCCOP(=O)(O)OC[C@H]1O[C@@H](n2ccc3c(-c4ccccc4)ncnc32)[C@H](O)[C@@H]1O | > 100
OC[C@H]1O[C@@H](n2ccc3c(-c4ccn[nH]4)ncnc32)[C@H](O)[C@@H]1O | 91.1
OC[C@H]1O[C@@H](n2ccc3c(-c4cccc5c4Oc4ccccc4S5)ncnc32)[C@H](O)[C@@H]1O | > 100
OCc1ncnc2c1ccn2[C@@H]1O[C@H](CO)[C@@H](O)[C@H]1O | 32.6
OC[C@H]1O[C@@H](n2cc(F)c3c(-c4nccs4)ncnc32)[C@H](O)[C@@H]1O | 69
OC[C@H]1O[C@@H](n2cc(F)c3c(-c4ccoc4)ncnc32)[C@H](O)[C@@H]1O | 91.2

SMILES | IC50 [µM]
OC[C@H]1O[C@@H](n2cc(Cl)c3c(-c4ccccc4)ncnc32)[C@H](O)[C@@H]1O | > 100
OC[C@H]1O[C@@H](n2cc(F)c3c(-c4ccccc4)ncnc32)[C@H](O)[C@@H]1O | 74.8
OC[C@H]1O[C@@H](n2ccc3c(-c4ccsc4)ncnc32)[C@H](O)[C@@H]1O | 81
OC[C@H]1O[C@@H](n2ccc3c(-c4cn[nH]c4)ncnc32)[C@H](O)[C@@H]1O | > 100
CCc1ncnc2c1ccn2[C@@H]1O[C@H](CO)[C@@H](O)[C@H]1O | 88.8
OC[C@H]1O[C@@H](n2ccc3c(-c4nccs4)ncnc32)[C@H](O)[C@@H]1O | 80.5
OC[C@H]1O[C@@H](n2ccc3c(-c4cc[nH]c4)ncnc32)[C@H](O)[C@@H]1O | 98.2
OC[C@H]1O[C@@H](n2cc(Cl)c3c(-c4ccsc4)ncnc32)[C@H](O)[C@@H]1O | 99.6
OC[C@H]1O[C@@H](n2ccc3c(-c4cccc5c4oc4ccccc45)ncnc32)[C@H](O)[C@@H]1O | > 100
OC[C@H]1O[C@@H](n2ccc3c(-c4c[nH]cn4)ncnc32)[C@H](O)[C@@H]1O | 15.6
OC[C@H]1O[C@@H](n2cc(Cl)c3c(-c4ccc(F)cc4)ncnc32)[C@H](O)[C@@H]1O | 89.6
OC[C@H]1O[C@@H](n2ccc3c(-c4cc5ccccc5[nH]4)ncnc32)[C@H](O)[C@@H]1O | > 100
OC[C@H]1O[C@@H](n2ccc3c(Cc4ccccc4)ncnc32)[C@H](O)[C@@H]1O | > 100
OC[C@H]1O[C@@H](n2ccc3c(-c4ccc[se]4)ncnc32)[C@H](O)[C@@H]1O | > 100
OC[C@H]1O[C@@H](n2ccc3c(-c4cccnc4)ncnc32)[C@H](O)[C@@H]1O | > 100
OC[C@H]1O[C@@H](n2ccc3c(-c4cccc5c4sc4ccccc45)ncnc32)[C@H](O)[C@@H]1O | > 100
OC[C@H]1O[C@@H](n2cc(F)c3c(-c4cccs4)ncnc32)[C@H](O)[C@@H]1O | > 100
OC[C@H]1O[C@@H](n2ccc3c(-c4ccccc4)ncnc32)[C@H](O)[C@@H]1O | 75.2
CCCCCCCCCCCCCCCCCCOP(=O)(O)OC[C@H]1O[C@@H](n2ccc3c(-c4cc5ccccc5o4)ncnc32)[C@H](O)[C@@H]1O | 93.4
OC[C@H]1O[C@@H](n2cc(F)c3c(-c4ccco4)ncnc32)[C@H](O)[C@@H]1O | 73.2
OC[C@H]1O[C@@H](n2ccc3c(-c4ccoc4)ncnc32)[C@H](O)[C@@H]1O | 83.7
OC[C@H]1O[C@@H](n2ccc3c(-c4cc5ccccc5s4)ncnc32)[C@H](O)[C@@H]1O | > 100

— ChEMBL document CHEMBL3132858, “6-Alkyl-, 6-aryl- or 6-hetaryl-7-deazapurine ribonucleosides as inhibitors of human or MTB adenosine kinase and potential antimycobacterial agents” (Medchemcomm, 2013)
